What was measured:
[1] = tested on: circulating blood T cells; assay: Flow cytometry of peripheral blood T cells; type: in vivo, mice
Procedure: Flow cytometry was performed on peripheral blood samples as previously reported. Zampell et al., PLoS ONE 7:e49940 (2012). Briefly, erythrocytes were lysed with RBC lysis buffer (Ebioscience, San Diego, Calif.) followed by staining with fluorophore-conjugated antibodies (CD45, CD3, and CD4; all from Biolegend, San Diego, Calif.) and analysis with a FACSCalibur flow cytometer (BD Biosciences, Franklin Lakes, N.J.) using FlowJo software (Tree Star, Ashland, Oreg.).

[2] = tested on: ear skin lymphatic vessels (LYVE-1+); assay: Ear punch wound model of cutaneous lymphangiogenesis; type: in vivo, mice; conditions: topical tacrolimus for 4 weeks, vs control ointment
Description: We also studied lymphangiogenesis during wound healing using an ear punch wound model and applying topical tacrolimus or control ointment for 4 weeks. […] To test the possibility of direct lymphangiogenic effects of tacrolimus, we applied tacrolimus to unwounded mouse ears for 4 weeks, and then performed whole mount confocal imaging of lymphatic vessels. We observed no increase in lymphangiogenesis in this uninjured, non-inflamed setting (FIG. 16). […] A corneal lymphangiogenesis assay was performed as previously reported. Cursiefen et al., Cornea 25:443-447 (2006). Briefly, 10-0 nylon sutures (Ethicon, Cincinnati, Ohio) were placed in the cornea at […]. Beginning immediately after suture placement, animals were treated with systemic tacrolimus or vehicle control daily for two weeks, followed by analysis using confocal microscopy (Leica Microsystems, Weitziar, Germany). […] Cutaneous lymphangiogenesis was assessed using an ear punch wound model as previously reported. […] Tile-scan images were obtained using a confocal microscope (Leica Microsystems, Weitziar, Germany) and skin within 400 μm of the wound edge was analyzed using Metamorph software (Molecular Devices, Sunnyvale, Calif.). Standardized (200 μm×200 μm) fields were analyzed for the number of branch points present per unit area by two blinded reviewers.

unwounded mouse ears = assay: Unwounded mouse ears, whole mount imaging of lymphatic vessels; type: in vivo, mice; conditions: tacrolimus applied to unwounded ears for 4 weeks
Description: We also studied lymphangiogenesis during wound healing using an ear punch wound model and applying topical tacrolimus or control ointment for 4 weeks. […] To test the possibility of direct lymphangiogenic effects of tacrolimus, we applied tacrolimus to unwounded mouse ears for 4 weeks, and then performed whole mount confocal imaging of lymphatic vessels. We observed no increase in lymphangiogenesis in this uninjured, non-inflamed setting (FIG. 16).

[3] = tested on: blood vessel permeability; assay: Miles assay for vascular permeability after PLND; type: in vivo; conditions: topical tacrolimus 2 weeks, PLND mice, vs vehicle control
Procedure: Additionally, to ensure that the observed effects of tacrolimus on lymphatic function were not a result of decreased vascular permeability and blood vessel leakage, we performed a Miles assay to measure blood vessel permeability following PLND surgeries with and without tacrolimus. […] In-vivo detection of ROS was performed by bioluminescent imaging of NADPH oxidase as described by Han et al. (J. Vis. Exp. doi: 10.3791/3925 (2012)). Briefly, mice were systemically injected with L-012 (an analogue of luminol) (20 μg/g) dissolved in PBS at different time points after PLND and luminescent signals representing ROS at the PLND surgery site were imaged and quantified using IVIS spectrum 200 (Xenogen Corporation). Miles assay for vascular permeability was performed as described. Radu et al., J. Vis. Exp. doi: 10.3791/50062 (2013). Briefly, 200 μl of 0.5% sterile Evans blue was injected via tail vein to 2 weeks tacrolimus treated PLND mice. After 30 min PLND hind limbs were imaged to observe Evans blue leakage. Hind limbs were excised and incubated in formamide for 48 hrs. at 55° C. to extract the Evans blue. Extracted Evans blue was quantified by measuring absorbance at 610 nm.

[4] = tested on: hind limb collecting lymphatics of non-operated animals; assay: Non-operated (sham) hind limb, NIR lymphatic imaging; type: in vivo, mice; conditions: tacrolimus, non-operated animals (anesthesia only, no surgery)
Description: Upper panels are representative images of NIR lymphatic images of the hind limb lymphatics in sham operated mice (i.e., anesthesia without incision or PLND) following treatment with control or topical tacrolimus for 2 weeks. Quantification of collecting lymphatic vessel pulsation frequency following 3 or 14 days of treatment with tacrolimus is shown below.
This is important since previous studies have shown that perilymphatic iNOS expression is an important regulator of collecting lymphatic pumping capacity. Liao et al., Proc. Natl. Acad. Sci. USA 108:18784-18789 (2011).

[5] = topical tacrolimus, vs vehicle treated controls

Compound: C=CC[C@@H]1/C=C(\C)C[C@H](C)C[C@H](OC)[C@H]2O[C@@](O)(C(=O)C(=O)N3CCCC[C@H]3C(=O)O[C@H](/C(C)=C/[C@@H]3CC[C@@H](O)[C@H](OC)C3)[C@H](C)[C@@H](O)CC1=O)[C@H](C)C[C@@H]2OC [tacrolimus]
- blood T cells (CD3+) ([1]; systemic tacrolimus 4 mg kg^−1 IP daily, vs vehicle control): significant reduction
- circulating CD4+ cells [1, 5]: no changes
- circulating blood T cells (CD3+) [1, 5]: no changes
- lymphatic vessel branching in ear skin adjacent to the wound [2]: significantly increased
- lymphatic vessel density in ear skin adjacent to the wound [2]: significantly increased
- lymphangiogenesis in uninjured, non-inflamed ear (unwounded mouse ears): no increase
- blood vessel permeability (Evans blue) [3]: no differences
- lymphatic contraction frequency [4]: did not increase
- perilymphatic accumulation of inflammatory cells [4]: did not increase
